In US8629149B2, “Oxopiperazine derivatives for the treatment of pain and epilepsy” (Zalicus Pharmaceuticals Ltd., priority 2009, dated 2014):

Assays:
[1] = test system: male CF1 mice; assay: 6 Hz psychomotor seizure model of partial epilepsy; assay type: in vivo, mouse; design: Epilepsy 6 Hz (% Protected): concentration or dose not given beside the values
Description: Compounds were evaluated for the protection against seizures induced by a 6 Hz, 0.2 ms rectangular pulse width of 3 s duration, at a stimulus intensity of 32 mA (CC97) applied to the cornea of male CF1 mice (20-30 g) according to procedures described by Barton et al, “Pharmacological Characterization of the 6 Hz Psychomotor Seizure Model of Partial Epilepsy,” Epilepsy Res. 47(3):217-27 (2001). Seizures are characterised by the expression of one or more of the following behaviours: stun, forelimb clonus, twitching of the vibrissae and Straub-tail immediately following electrical stimulation.

[2] = test system: mice; assay: Mouse rotarod assay; assay type: in vivo
Description: (§1) To assess a compound's undesirable side effects (toxicity), animals were monitored for overt signs of impaired neurological or muscular function. In mice, the rotarod procedure (Dunham and Miya, J. Am. Pharmacol. Assoc. 46:208-209 (1957)) is used to disclose minimal muscular or neurological impairment (MMI). When a mouse is placed on a rod that rotates at a speed of 6 rpm, the animal can maintain its equilibrium for long periods of time. The animal is considered toxic if it falls off this rotating rod three times during a […].

[3] = Mouse rotarod assay; assay type: in vivo; details: mouse, in vivo, mice
Description: as §1

[4] = target: T1, human Nav1.5 channel (Homo sapiens, UniProt Q14524); assay: Nav1.5 sodium channel screening assay (PatchXpress, cardiac action potential waveform); assay type: cell-based
T1 construct: expressed in transfected cells; host or cells: HEK cells
T1 sequence (Q14524 whole entry): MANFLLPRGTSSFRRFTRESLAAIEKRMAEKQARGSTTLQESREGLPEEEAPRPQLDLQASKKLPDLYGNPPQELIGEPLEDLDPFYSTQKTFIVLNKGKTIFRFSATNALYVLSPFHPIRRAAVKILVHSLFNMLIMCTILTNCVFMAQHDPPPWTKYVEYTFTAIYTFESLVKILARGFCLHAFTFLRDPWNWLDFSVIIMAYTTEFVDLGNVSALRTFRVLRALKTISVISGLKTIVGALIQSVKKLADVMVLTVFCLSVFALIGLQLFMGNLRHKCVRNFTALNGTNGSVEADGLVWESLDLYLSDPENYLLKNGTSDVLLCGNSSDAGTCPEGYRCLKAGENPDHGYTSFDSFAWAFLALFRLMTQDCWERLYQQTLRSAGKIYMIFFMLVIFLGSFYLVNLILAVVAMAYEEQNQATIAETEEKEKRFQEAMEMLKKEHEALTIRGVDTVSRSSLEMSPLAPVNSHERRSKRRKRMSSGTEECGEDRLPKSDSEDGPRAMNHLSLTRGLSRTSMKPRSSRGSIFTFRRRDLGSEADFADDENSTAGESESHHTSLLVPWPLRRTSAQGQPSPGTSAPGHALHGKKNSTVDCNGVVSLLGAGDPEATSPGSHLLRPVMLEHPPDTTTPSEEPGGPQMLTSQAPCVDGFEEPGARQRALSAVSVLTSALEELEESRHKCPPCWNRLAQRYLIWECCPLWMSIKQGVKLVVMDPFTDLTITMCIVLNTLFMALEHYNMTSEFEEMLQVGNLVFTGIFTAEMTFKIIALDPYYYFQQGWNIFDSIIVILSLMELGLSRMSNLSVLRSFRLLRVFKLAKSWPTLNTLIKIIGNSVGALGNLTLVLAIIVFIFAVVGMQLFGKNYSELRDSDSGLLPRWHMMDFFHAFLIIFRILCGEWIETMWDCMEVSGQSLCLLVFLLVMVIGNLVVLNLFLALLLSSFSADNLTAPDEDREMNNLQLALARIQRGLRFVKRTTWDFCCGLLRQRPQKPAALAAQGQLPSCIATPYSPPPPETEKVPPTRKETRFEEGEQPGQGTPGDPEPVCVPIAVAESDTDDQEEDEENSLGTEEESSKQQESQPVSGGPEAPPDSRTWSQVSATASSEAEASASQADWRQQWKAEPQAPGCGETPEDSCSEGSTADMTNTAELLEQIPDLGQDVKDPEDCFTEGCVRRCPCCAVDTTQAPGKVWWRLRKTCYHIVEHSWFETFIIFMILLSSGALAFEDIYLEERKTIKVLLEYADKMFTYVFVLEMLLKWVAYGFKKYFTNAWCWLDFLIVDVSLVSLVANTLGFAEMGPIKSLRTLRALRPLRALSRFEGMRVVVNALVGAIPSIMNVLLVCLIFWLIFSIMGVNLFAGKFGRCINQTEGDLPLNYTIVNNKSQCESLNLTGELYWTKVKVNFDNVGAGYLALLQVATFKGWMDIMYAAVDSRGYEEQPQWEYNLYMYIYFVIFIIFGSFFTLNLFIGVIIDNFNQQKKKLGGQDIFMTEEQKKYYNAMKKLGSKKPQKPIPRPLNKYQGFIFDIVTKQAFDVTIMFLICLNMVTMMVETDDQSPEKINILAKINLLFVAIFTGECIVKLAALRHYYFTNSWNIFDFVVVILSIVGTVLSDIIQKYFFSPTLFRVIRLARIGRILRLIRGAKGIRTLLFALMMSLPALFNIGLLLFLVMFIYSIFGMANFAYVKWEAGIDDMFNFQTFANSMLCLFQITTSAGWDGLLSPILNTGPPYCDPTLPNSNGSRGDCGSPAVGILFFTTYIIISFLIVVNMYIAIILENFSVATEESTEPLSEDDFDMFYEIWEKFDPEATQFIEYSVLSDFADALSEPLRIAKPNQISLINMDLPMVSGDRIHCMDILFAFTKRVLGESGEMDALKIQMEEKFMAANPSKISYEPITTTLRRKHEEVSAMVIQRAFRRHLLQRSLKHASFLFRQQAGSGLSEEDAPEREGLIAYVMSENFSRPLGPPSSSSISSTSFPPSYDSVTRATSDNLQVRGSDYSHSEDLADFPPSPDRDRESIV
Description: Inhibition of the TTX-resistant Nav1.5 sodium channel, a key cardiac ion channel, can have profound effects on the duration and amplitude of the cardiac action potential and can result in arrhythmias and other heart malfunctions. To assess the potential cardiac liability of compounds at an early stage in the drug discovery process, a Nav1.5 sodium channel screening assay is performed on Molecular Device's PatchXpress™ automated electrophysiology platform. Under voltage-calmp conditions, Nav1.5 currents are recorded from HEK cells expressing the human Nav1.5 channel in the absence and presence of increasing concentrations of the test compound to obtain an IC50 value. The external recording solution contained (in mM): 90 TEACl, 50 NaCl, 1.8 CaCl, 1 MgCl2, 10 HEPES, 10 glucose, adjusted to pH 7.4 with TEA-OH and to 300 mOsm with sucrose (if necessary), while the internal patch pipette solution contained (in mM): 129 CsF, 2 MgCl2, 11 EGTA, 10 HEPES, 3 Na2ATP adjusted to pH 7.2 with CsOH and to 290 mOsm with sucrose (if necessary). Nav1.5 channel currents were evoked using a cardiac action potential waveform at 1 Hz, digitized at 31.25 kHz and low-pass filtered at 12 kHz.

[5] = Rat Early Pharmacokinetic (EPK) study; assay type: in vivo; details: 3 mg/kg PO, PG (propylene glycol)
Description: Male Sprague-Dawley rats were dosed via oral (PO) gavage in the detailed formulation. Blood samples were collected from the animals at 6 timepoints out to 4 hours post-dose. Pharmacokinetic analysis was performed on the LC-MS/MS measured concentrations for each timepoint of each compound.

Compound	Epilepsy 6 Hz (% Protected) ([1]; 0.25 hour)	Epilepsy 6 Hz (% Protected) ([1]; 0.5 hour)	Epilepsy 6 Hz (% Protected) ([1]; 1 hour)	Epilepsy 6 Hz (% Protected) ([1]; 2 hours)	Epilepsy 6 Hz (% Protected) ([1]; 4 hours)	% Impaired ([2]; 0.25 hr)	% Impaired ([2]; 0.5 hr)	% Impaired ([2]; 1 hr)	% Impaired ([2]; 2 hr)	% Impaired ([2]; 4 hr)	ED50 ([1]; Mus musculus, 32 mA, mice)	TD50 [3]	Inhibition of the cardiac Nav 1.5 channel (statement) ([4]; HEK cells expressing human Nav1.5)	IC50 ([4]; cardiac action potential waveform at 1 Hz, read-out: HNAV 1.5 CARDIAC AP 1 Hz IC50)	Dose Normalized AUC [5]	Dose Normalized Cmax [5]	Tmax ([5]; male, Sprague-Dawley, blood)
O=C1CN(C(=O)CC(c2ccc(Cl)cc2)c2ccc(Cl)cc2)CCN1 [Compound 3, 4-(3,3-bis(4-chlorophenyl)propanoyl)piperazin-2-one]	0%	0%	0%	0%	0%	0%	0%	0%	0%	0%	–	–	–	–	–	–	–
O=C1CN(C(=O)CC(c2ccccc2)c2ccccc2)CCN1 [Compound 4, 4-(3,3-diphenylpropanoyl)piperazin-2-one]	50%	88%	13%	25%	–	0%	0%	0%	0%	0%	192 mg/kg	370 mg/kg	did not act as inhibitors	≥ 300 µM	522 nM·h	832 nM	15 min
